Reference: US20160045463A1, “USE OF METALLOPROTEASE INHIBITORS IN THE TREATMENT OF POLYCYSTIC LIVER DISEASES” (UNIVERSIDAD DE SALAMANCA, priority 2012, published 2016)

Legend:
PCK rats = test: Treatment of PCK rats with Marimastat for 8 weeks; type: in vivo, rat
Source text: PCK rats, sold by the Charles River company, is a well characterised animal model of ARPKD and used for the study of liver and kidney cystogenesis (Mason S B, et al. The Anatomical Record: Advances in Integrative Anatomy and Evolutionary Biology 2010; 293:1279-1288). This colony of animals has a spontaneous orthologous mutation in the PKHD1 gene that causes them to develop liver and kidney symptoms similar to those of ARPKD patients. Thus, after 4 weeks of life, PCK rats, irrespective of sex, start to develop liver and kidney cystogenesis and fibrosis, which are clearly shown at 16 weeks of life. In addition, these animals also show an increase in serum values of creatinine, bilirubin, cholesterol, triglycerides and proteinuria (Mason S B, et al. The Anatomical Record: Advances in Integrative Anatomy and Evolutionary Biology 2010; 293:1279-1288). PCK rats were maintained on standard diet for the whole assay and all in vivo experimental procedures were approved by the Ethics Committee of the Instituto Biodonostia.
The group of control rats received the vehicle solution (i.e. distilled water) orally, 2 times a day (every ˜8-12 hours) and using the tube. Various biochemical markers were monitored in serum at the start and end of the study. Blood was extracted (500 μl through the tail vein) after anaesthetising the animal with isoflurane (inhalation anaesthesia, 2.5% in oxygen, with a flow rate of 0.3 L/min). After centrifuging the blood, various biochemical parameters were determined in the serum: alkaline phosphatase (ALP), transaminases (ALT, AST), bilirubin, biliary acids, creatinine, cholesterol, triglycerides and total proteins using a COBAS Integra400 Plus 174 analyser.
After sacrificing the animals, the liver and kidney were removed and weighed; next both types of tissue were sectioned with a scalpel and fixed with a solution of 10% formaldehyde, to be later included in paraffin. Slices of 5 μm thickness were made of each sample and stained with hematoxylin-eosin or picrosirius red.
The aim of hematoxylin-eosin staining is the determination of histological morphology. Thus the slices were incubated for 4 minutes with Harris hematoxylin (Merck) at room temperature. After incubation, the samples were washed with distilled water and stained with eosin (Merck) for 1 minute at room temperature. Next, the tissue slices were washed in running water for 5 minutes, dehydrated by immersion in solutions of increasing ethanol concentration (70%, 96%, 100% for 1 minute each) and finally incubated with xylol for 5 minutes. The samples were mounted with DePeX (Sigma) mounting medium for subsequent viewing in an optical microscope (Nikon Eclipse E800).
The purpose of picrosirius red staining is the determination of extracellular collagen in the tissue. When hydration was completed, the slices were stained with 0.2% phosphomolybdic acid (Panreac Química) for 2 minutes and washed with distilled water. Next, the samples were incubated with a solution of 0.1% picrosirius red f3B (Gibco) for 3 hours. Finally the samples were washed with a solution of 0.01 N HCl for 2 minutes; the tissue was then dehydrated and mounted as described in the previous section.
Additionally, the level of expression of various profibrotic hepatic markers [collagen 1a1 (Col1a1), beta transforming growth factor (TGFbeta), alpha actin of smooth muscle (alpha-Sma) and the growth factor of connective tissue (Ctgf)] and proinflammatory markers [IL-6, IL CXCL1 and IL1beta)] were analysed by RT-PCR in liver samples of control and PCK rats.

[1] = cited from earlier work
[2] = 0.2856 mg/kg/day; patients with colorectal cancer; cited from earlier work
[3] = at the time of sacrifice, n = 9
[4] = serum, at the time of sacrifice, n = 9

- WEIGHT Left kidney (PCK rats; [3]): 2.40 ± 0.19
- WEIGHT Liver (PCK rats; [3]): 26.17 ± 2.98
- WEIGHT Rat (PCK rats; [3]): 497 ± 12.24
- WEIGHT Right kidney (PCK rats; [3]): 2.36 ± 0.17
- serum levels of biochemical markers and biliary flow (PCK rats; at the time of sacrifice, treated vs control, Table 5): no difference
- Albumin (PCK rats; [4]): 13.78 ± 0.59 g/L
- Alkaline phosphatase (PCK rats; [4]): 57.00 ± 5.01 U/L
- Cholesterol (PCK rats; [4]): 76.56 ± 3.93 mg/dL
- Creatinine (PCK rats; [4]): 0.36 ± 0.02 mg/dL
- Glucose (PCK rats; [4]): 137.89 ± 7.25 mg/dL
- HDL (PCK rats; [4]): 31.11 ± 3.06 mg/dL
- LDH (PCK rats; [4]): 15192.33 ± 356.84 U/L
- LDL (PCK rats; [4]): 33.38 ± 1.61 mg/dL
- Total bilirubin (PCK rats; [4]): 0.16 ± 0.05 mg/dL
- Total protein (PCK rats; [4]): 3.11 ± 0.12 g/dL
- Triglycerides (PCK rats; [4]): 60.33 ± 3.97 mg/dL
- Urea (PCK rats; [4]): 20.33 ± 0.78 mg/dL
SMILES: CNC(=O)[C@@H](NC(=O)[C@H](CC(C)C)[C@H](O)C(=O)NO)C(C)(C)C [Marimastat, N-[2,2-dimethyl-1-(methylcarbamoyl)propyl]-2-[hydroxy-(hydroxycarbamoyl)methyl]-4-methyl-pentanamide]
- kidney cystogenesis (PCK rats; 8 weeks, FIG. 25): not affected
- cholangiocyte marker Ck19 expression at protein level (Western blot), hepatic samples (PCK rats; 8 weeks, p<0.001, FIG. 27A): down regulation
- collagen 1a1 (Col1a1) mRNA expression, hepatic samples (PCK rats; 8 weeks, p<0.05, FIG. 27B): down regulation
- mRNA levels of CXCL1 in liver samples (PCK rats; 8 weeks, p=0.08, FIG. 28B): almost statistically significant down regulation
- mRNA levels of IL6 in liver samples (PCK rats; 8 weeks, p=0.1, FIG. 28A): almost statistically significant down regulation
- collagen deposition in liver (picrosirius red) (PCK rats; 8 weeks, vs control PCK rats, FIG. 26): less collagen deposition
- liver cystogenesis (area of intrahepatic biliary cysts) (PCK rats; oral 0.2856 mg/kg/day, 8 weeks, vs control PCK rats, p<0.05, FIG. 24): reduction
- ALT (PCK rats; [4]): 138.22 ± 2.66 U/L
- AST (PCK rats; [4]): 755.56 ± 24.76 U/L
- oral bioavailability ([1]; compared with Batimastat): better oral bioavailability
- toxicity ([1]; compared with Batimastat): less toxicity
- elimination half-life ([1]; in vivo): 8 to 10 h
- toxicity at dose used in clinical trials [2]: does not cause toxicity
